From ChEMBL document CHEMBL1157539, “Thousands of chemical starting points for antimalarial lead identification” (Nature, 2010)

System: Plasmodium falciparum
Assay: GSK_TCMDC: Inhibition of Plasmodium falciparum 3D7 in whole erythrocytes, using parasite LDH activity as an index of growth.
Type: functional, organism-based
Conditions: not given

Row | SMILES | XC50 [nM]
1 | O=C(/C=C/c1ccccc1O)NC1CCC(CN2CCC(c3c[nH]c4ccccc34)CC2)CC1 (centres undefined) | 461

Same assay, conditions: Plasmodium falciparum, 3D7

Row | SMILES | XC50 [nM]
2 | COc1ccc2nccc([C@@H](O)CN3CCC(NCc4cc5cccnc5[nH]4)CC3)c2n1 | 956
3 | CCCCNc1cc(NCCCC)c2c(n1)[nH]c1ccccc12 | 570
4 | O=C(/C=C/c1ccccc1O)NC1CCC(CN2CCC(c3c[nH]c4ccccc34)CC2)CC1 (centres undefined) | 756
5 | Oc1ccc(CN2CCN(CCOC(c3ccc(F)cc3)c3ccc(F)cc3)CC2)cc1Cl | 935
6 | CCOc1cc(C(=O)NCCN(CC)c2cccc(C)c2)ccc1-c1nc2cc(Cl)ccc2[nH]1 | 809
7 | Cc1ccc(Nc2nc(N)c3ccccc3n2)cc1 | 839
8 | COc1ccc(CNCCc2cccs2)cc1-c1cccc(S(=O)(=O)NCCN2CCCC2)c1 | 877
9 | COc1cc(NC(=O)N2CCc3ccc(OCCC4CCCN4C)cc32)cc(C(F)(F)F)c1 (centres undefined) | 714
10 | CCOC(=O)c1ccc(NC(=O)Nc2ccc(-c3ccc(-c4nc5cc(C(F)(F)F)ccc5[nH]4)cc3)cc2)cc1 | 273
11 | C=CCNC(=O)C(C)c1ccc2cc(OC)ccc2c1 (centres undefined) | 420
12 | COc1ccccc1OCCN(CC(O)COc1cccc2[nH]c3ccccc3c12)CC(O)COc1cccc2[nH]c3ccccc3c12 (centres undefined) | 636
13 | CNC(=O)c1ccccc1Nc1nc(Nc2ccc(CCN3CCN(C)CC3)cc2)ncc1Cl | 651
14 | COc1ccc(C(=O)N2CCC3(CC2)C(=O)N(CC(=O)NC2CCCCC2)CN3c2ccccc2)c(OC)c1 | 224
15 | O=C(C=Cc1ccc(Cl)c(Cl)c1)NCCCCCN1CCC(c2n[nH]c3ccccc23)CC1 | 638
16 | Nc1c2c(nc3ccc(Oc4ccc(Br)cc4Br)cc13)CCCC2 | 864
17 | CCOC(=O)CNC(=O)N1CCN(C(=O)NCC(=O)OCC)CC1 | 848
18 | CC(C)CCN1CCC(Oc2cccc(NC(=O)c3ccc(C(F)(F)F)cc3)c2)CC1 | 630
19 | Cc1cccc2nc(-c3cccc(-c4ccc(NC(=O)Cc5ccc[n+]([O-])c5)cc4)c3)[nH]c12 | 627
20 | COc1ccc(C(C)Nc2nc(N)c3cc(OC)c(OC)cc3n2)cc1 (centres undefined) | 936
21 | COc1c(C2=CCN(CCCCNC(=O)c3ccc(-c4ccc(C#N)cc4)cc3)CC2)c(C)cc2c1C(C)(C)CCC2(C)C | 947
22 | CCOc1ccc(-c2n[nH]c(C(F)(F)F)c2-c2ccccc2OC)c(O)c1 | 1140
23 | COc1cccc(N(CCCN2C(=O)c3cccc4cccc(c34)C2=O)C(=O)c2ccccc2C)c1 | 795
24 | CC(C)N(CC(=O)c1ccc(O)c(C(=O)O)c1)Cc1ccccc1 | 187
25 | COc1ccc(CNc2nccc3ccc(-c4ccc5nccn5c4)cc23)cc1 | 882
26 | N#Cc1ccc2c(c1)CCN(CCC1CCC(NC(=O)/C=C/c3ccc4[nH]ccc4c3)CC1)CC2 (centres undefined) | 1060

Row | SMILES | XC50 [nM]
27 | O=C(Nc1ccc(OC2CCN(Cc3ccc(F)cc3)C2)c(Cl)c1)c1cccs1 (centres undefined) | 128
28 | Cc1ccc2ccncc2c1N | 697
29 | N=c1ccn(CC(=NO)c2ccc(Cl)c(Cl)c2)cc1 | 943
30 | Cc1cc(Nc2ccc(Oc3ccc(Cl)cc3)cc2)nc(N)n1 | 616
31 | CCCCCCn1ccc2c3c(N)nc(N)nc3ccc21 | 149
32 | Cc1cccc2nc(-c3ccc(-c4ccc(CN5CCN(CCC#N)CC5)cc4)cc3)[nH]c12 | 864
33 | COc1ccc(CCNCCCCCCNCCc2ccc(OC)c(OC)c2Cl)c(Cl)c1OC | 904
34 | CCOc1cccc(C(=O)Nc2cccc(CN3CCCN(Cc4cccc(O)c4)CC3)c2)c1 | 1090
35 | COc1cc(CCNC(=N)/C=C/c2ccc(Cl)cc2)ccc1Cl | 241
36 | CN(C(=O)c1cc2c(-c3cncnc3)cccc2[nH]1)c1ccccc1 | 628
37 | Cc1cc(-c2ccc(CNCc3ccsc3)cc2)ccc1S(=O)(=O)NCCN1CCCC1 | 725
38 | C=CCC(CC=C)N1C(=O)C(c2ccccc2)(c2ccccc2)N=C1N | 659
39 | O=C(CC1NC(=O)c2ccccc21)Nc1ccc(-c2ccc(-c3nc4cc(C(F)(F)F)ccc4[nH]3)cc2)cc1 (centres undefined) | 470
40 | Clc1cc(Nc2ncnc3cc(C#C[C@H]4CCCN4)sc23)cc2nc(Cc3ccccc3)[nH]c12 | 852
41 | CNCCNCc1cccc(-c2cccc(-c3nc4cc(F)ccc4[nH]3)c2)c1 | 670
42 | COc1ccc(-c2ccc(CNC(=O)c3ccc(C#N)cc3)c(F)c2)cc1CN1CCCN(C)CC1 | 1140
43 | CCN(CC)CCN(Cc1ccc(-c2ccc(C(F)(F)F)cc2)cc1)C(=O)Cn1c(CCc2cccc(F)c2F)nc(=O)c2ccc(F)cc21 | 360
44 | CN(C)CCCOc1ccc(CN2CC[C@H](NC(=O)c3ccc(Cl)c(Cl)c3)C2)c2ccccc12 | 879
45 | COc1ccc2[nH]ccc(=NN=Cc3ccc(N(C)C)cc3)c2c1 | 799
46 | COc1ccc(-n2cc(C(=O)c3cc(Br)ccc3O)cc(C#N)c2=O)cc1Cl | 791
47 | CC1(C)NC(N)=NC(=N)N1OCOc1ccc(Cl)cc1 | 4.6
48 | CSc1ccc2ccccc2c1CNCCCCCCNCc1c(SC)ccc2ccccc12 | 797
49 | O=C(c1ccco1)N1CCN(c2ccc([N+](=O)[O-])c(NC3CC3)c2)CC1 | 747
50 | Cc1ncccc1-c1cccc2c(NC(=O)Nc3ccc4nccc(N5CCN(C)CC5)c4c3)cccc12 | 632
51 | CC(C)NCc1ccc(-c2ccc(CN3CCCC(c4ccccc4)C3)cc2)c(C(=O)NCC2CCCCC2)c1 (centres undefined) | 722

Row | SMILES | XC50 [nM]
52 | O=C(NOCc1ccccc1)c1cc(Cl)ccc1O | 1100
53 | CC(C)(C)C(=O)N1CCN(c2ccc([N+](=O)[O-])c(NC3CC3)c2)CC1 | 941
54 | Clc1ccc(CNc2nc(NCCc3c[nH]cn3)nc(Nc3ccc4c(c3)OCO4)n2)cc1 | 955
55 | CCOc1ccc2c(=NN=Cc3ccc(OC)c(OC)c3)cc(C)[nH]c2c1 | 700
56 | O=C(c1ccc(O)c(-c2cc(Cl)cc(Cl)c2)c1)N1CCCC1 | 1000
57 | Cc1ccc(Nc2ccnc(Nc3ccc(F)c(Cl)c3)n2)cc1O | 733
58 | COc1ccc2c(N/N=C/c3cccc([N+](=O)[O-])c3)cc(C)nc2c1 | 557
59 | Cc1c(NC(=O)COc2ccc(Cl)cc2C(=O)c2cc(F)cc(C(F)(F)F)c2)ccc2ncsc12 | 1020
60 | FC(F)(F)c1cccc(CNC2CCN(CC3CCCCC3)CC2)c1 | 575
61 | O=C(CN1CCN(C(=O)c2ccco2)CC1)Nc1ccc(Br)cc1Cl | 773
62 | C[C@@H](Oc1cc(-n2cnc3cc(SCCN4CCN(C)CC4)ccc32)sc1C(N)=O)c1ccccc1Cl | 507
63 | Cc1cccc2nc(-c3cccc(-c4cccc(CN5CCN(c6ccc(C#N)cn6)CC5)c4)c3)[nH]c12 | 1160
64 | N#CC(c1ccc(Br)cc1)c1ccc2c(C(F)(F)F)cc(C(F)(F)F)nc2n1 (centres undefined) | 440
65 | COc1cc2nccc(Nc3cc(C)cc(O)c3)c2cc1OC | 905
66 | COc1ccc2nccc(NC(=O)C3(O)CCC(NCc4ccc5c(c4)NCCS5)CC3)c2n1 (centres undefined) | 598
67 | Cc1cccc(CN2CCC(Oc3ccc(NC(=O)c4cccs4)cc3Cl)CC2)n1 | 844
68 | O=C(NC1CCN(Cc2ccccc2)CC1)c1cc(-c2cccnc2)nc2ccc(Cl)cc12 | 759
69 | COc1ccc(CN2CCCC(Nc3ccc(F)c(F)c3)C2)c(O)c1 (centres undefined) | 1090
70 | O=C(C=Cc1ccc(Cl)c(Cl)c1)NCCCCCN1CCC(CCNC(=O)c2cccc3ccccc23)CC1 | 1590
71 | O=C(C=Cc1cccs1)N(CCCn1ccnc1)c1nc2ccc(F)cc2s1 | 1600
72 | Cc1ccc(O)c(Nc2c3c(c(C#N)c4nc5ccccc5n24)CCC3)c1 | 1250
73 | Nc1cccc(CNCc2ccc(-c3ccc(-c4nc5ccccc5[nH]4)s3)cc2)c1 | 574
74 | Cn1nc(C(F)(F)F)c(-c2ccc(Br)cc2)c1NC(=O)Nc1ccc(F)cc1F | 793
